Source: publication PMC10821124, “Dimeric 3,5-Bis(benzylidene)-4-piperidones: Tumor-Selective Cytotoxicity and Structure-Activity Relationships” (Medicines, 2024)
Entries after “also recorded” stand apart in the source; their conditions may differ.

Experiments:
[1] = system: human promyelocytic leukemia HL-60 cells; assay: Cytotoxicity, MTT method, HL-60 cells; assay type: cell-based; conditions: for CC50: Homo sapiens, HL-60, 48 h, MTT, mean ± SD, read-out: CC50 HL-60; for SI (selectivity index) HL-60: average CC50 non-malignant cells / CC50 HL-60
Protocol: (§1) Human promyelocytic leukemia [HL-60 (RCB3683)] (purchased from Riken Cell Bank, Tsukuba, Japan) was cultured at 37 °C in RPMI1640 medium (Fujifilm Wako Pure Chemical Co., Osaka, Japan) supplemented with 10% heat (56 °C, 30 min) inactivated FBS (Sigma-Aldrich Inc. St. Louis, MO, USA), 100 U/mL penicillin G, and 100 µg/mL streptomycin sulfate in a humidified 5% CO2 incubator (MCO-170 AICUVD-P, Panasonic Healthcare Co., Ltd., Gunma, Japan). Human oral squamous cell carcinoma (OSCC) cell lines derived from tongue [HSC-2 (RCB1945), HSC-3 (RCB1975), HSC-4 (RCB1902)] (Riken Cell Bank), and human normal oral cells (gingival fibroblasts, HGF; pulp cell, HPC; periodontal ligament fibroblast, HPLF), established from the first premolar extracted tooth in the lower jaw and periodontal tissues of a child, according to the guidelines of Meikai University Ethic Committee (No. A0808), were cultured in DMEM medium (Fujifilm Wako Pure Chemical Co.) supplemented with 10% FBS and antibiotics. The compounds in Series 2–4 were evaluated against HL-60, HSC-2, HSC-3, HSC-4, HGF, HPC, and HPLF cells based on a literature procedure, as described previously. In brief, near confluent cells were incubated in triplicate for 48 h at 37 °C with different concentrations ([…], 6.3, 12.5, 25, 50, 100 µM) of the compounds; then, viable cell numbers were measured using the MTT method. From the dose–response curve, a 50% cytotoxic concentration (CC50) was determined. All samples were dissolved in dimethylsulfoxide (DMSO). The toxicity of DMSO alone was calculated and subtracted. The CC50 values were determined from dose–response curves.

[2] = system: human oral squamous cell carcinoma HSC-2 cells; assay: Cytotoxicity, MTT method, HSC-2 cells; assay type: cell-based; conditions: for CC50: Homo sapiens, HSC-2, 48 h, MTT, mean ± SD, read-out: CC50 HSC-2; for SI (selectivity index) HSC-2: average CC50 non-malignant cells / CC50 HSC-2
Protocol: as §1

[3] = system: human oral squamous cell carcinoma HSC-3 cells; assay: Cytotoxicity, MTT method, HSC-3 cells; assay type: cell-based; conditions: for CC50: Homo sapiens, HSC-3, 48 h, MTT, mean ± SD, read-out: CC50 HSC-3; for SI (selectivity index) HSC-3: average CC50 non-malignant cells / CC50 HSC-3
Protocol: as §1

[4] = system: human oral squamous cell carcinoma HSC-4 cells; assay: Cytotoxicity, MTT method, HSC-4 cells; assay type: cell-based; conditions: for CC50: Homo sapiens, HSC-4, 48 h, MTT, mean ± SD, read-out: CC50 HSC-4; for SI (selectivity index) HSC-4: average CC50 non-malignant cells / CC50 HSC-4
Protocol: as §1

[5] = Cytotoxicity, MTT method, HGF non-malignant cells; assay type: cell-based, human; conditions: human, gingival fibroblasts (HGF), non-malignant, mean ± SD
Protocol: as §1

[6] = Cytotoxicity, MTT method, HPC non-malignant cells; assay type: cell-based, human; conditions: human, pulp cells (HPC), non-malignant, mean ± SD
Protocol: as §1

[7] = Cytotoxicity, MTT method, HPLF non-malignant cells; assay type: cell-based, human; conditions: human, periodontal ligament fibroblasts (HPLF), non-malignant, mean ± SD
Protocol: as §1

[8] = system: human tumour cell lines HL-60, HSC-2, HSC-3, HSC-4; assay: Cytotoxicity, average over the four human tumour cell lines; assay type: cell-based; conditions: for CC50: Homo sapiens, average of HL-60, HSC-2, HSC-3, HSC-4, read-out: AVE. CC50, human tumour cell lines; for AVE SI: average of the four SI values
Protocol: as §1

[9] = Cytotoxicity, average over the three human normal cells; assay type: cell-based; conditions: human, average of HGF, HPC, HPLF; read-out: AVE CC50, human normal cells
Protocol: as §1

[10] = system: human normal cells HGF, HPC, HPLF; assay: as above; assay type: cell-based; conditions: average of HGF, read-out: AVE CC50, human normal cells
Protocol: as §1

caspases-3 and -7 = assay: Caspase-Glo 3/7 assay in HSC-2 cells; assay type: cell-based, human; conditions: 0.5 µM, 24 h
Protocol: Both 3b (0.5 µM) and 3c (0.5 µM) were examined for their ability to activate caspases-3 and -7 in HSC cells. This determination was accomplished using the Caspase-Glo 3/7 assay (Promega Corporation, Madison, WI, USA). In brief, this assay uses a tetrapeptide sequence DEVD, which is optimized for caspase and luciferase activities. The cell lysate was incubated with the Caspase-Glo reagent (buffer and substrate) for 1 h and the luminescence was measured. The resultant luminescent signal produced by luciferase was confirmed to be proportional to the amount of caspase-3 and -7 activity.

PARP1 = PARP1 cleavage, western blot in HSC-2 cells; assay type: cell-based, human; conditions: 0.5 µM, 24 h
Protocol: (§2) Antibodies against cleaved PARP1, bim, bax, puma, and bak were obtained from Cell Signaling Technology (Beverley, MA, USA) while the anti-actin antibody was purchased from Santa Cruz Biotechnology (Santa Cruz, CA, USA).
(§3) The HSC-2 cells were cultured for 24 h and, then, treated with 0.5 µM of 3b or 3c for 24 h. The cells were scraped and collected in lysis buffer (purchased from Cell Signaling Technology), which contained 1 mM of phenylmethanesulfonyl fluoride and one tablet of protease inhibitor cocktail (Complete, EDTA-free; Roche Diagnostics, Mannheim, Germany). The proteins were subjected to 8% SDS-polyacrylamide gel electrophoresis and, then, transferred to a polyvinylidene difluoride membrane saturated with 5% nonfat dry milk. The membranes were incubated with rabbit monoclonal anti-cleaved PARP (Cell Signaling Technology, Beverly, MA, USA; #9541, 1:1000), or beta-actin antibody (Sigma-Aldrich, St Louis, MO, USA; A5441, 1:10,000) for 1 h at room temperature. The membranes were washed with Tris-buffered saline containing 0.1% Tween 80. And, the secondary antibodies were horseradish peroxidase-conjugated goat antimouse or antirabbit, which reacted with the chemoluminescent substrate system and were exposed to X-ray films.

HSC-2 cells = assay: Cell cycle analysis of HSC-2 cells; assay type: cell-based, human; conditions: 0.5 µM, 24 h
Protocol: The effect of 3b (0.5 µM) and 3c (0.5 µM) on the phase distribution of HSC-2 cells after 24 h of incubation was determined using the protocol of a manufacturer (BD Pharmingen, BD BioSciences, San Jose, CA, USA). In brief, treated and untreated cells were suspended at a density of ~1 × 10^6 cells/mL in cooled phosphate-buffered saline (PBS) without calcium and magnesium ions and fixed with 70% ethanol overnight at −20 °C. The cells were washed with cooled PBS and re-suspended in a propidium iodide/RNase staining buffer in the dark at room temperature for 0.25 h. Both acquisition and analysis were performed using EPICS ALTRA (Beckman Coulter, Brea, CA, USA) and EXPO 32 software.

bim, bax, puma, and bak = assay: Pro-apoptotic proteins bim, bax, puma, bak in HSC-2 cells; assay type: cell-based, human; conditions: 24 h, data not shown
Protocol: as §2, §3

HCT116 cells [11] = assay: Mitochondrial membrane potential determination in HCT116 cells; assay type: cell-based, human; conditions: 48 h, tetramethylrhodamine ethyl ester
Protocol: The determination of the IC50 values of 3b, 3c, and 5-FU on the mitochondrial membrane potential in HCT 116 cells was undertaken using a literature procedure. In brief, the cells were incubated at 37 °C in an atmosphere of 5% carbon dioxide for 24 h. The compounds were dissolved in DMSO, added to the cells, and incubated for 48 h. Then, […], and 2,4-dinitrophenol (DNP) were added to the cells, which were incubated for 0.5 h. After the addition of tetramethylrhodamine ethyl ester, the fluorescence of the cells was determined using a plate reader.

HCT116 cells [12] = assay: Reactive oxygen species determination in HCT116 cells; assay type: cell-based, human
Protocol: The determination of the effects of 3b, 3c, and 5-FU on the generation of reactive oxygen species in HCT 116 cells was accomplished using a literature procedure. In brief, the cells were incubated at 37 °C in an atmosphere of 5% carbon dioxide for 24 h. Subsequently, solutions of the compounds in DMSO were added to the cells, which were incubated for 48 h. After 2′,7′-dichlorofluorescein was added to the cells, incubation continued for another 0.5 h and the fluorescence of the cells was measured spectrophotometrically (excitation wavelength 485 nm; emission wavelength, 530 nm).

Row | SMILES | CC50 [1] [µM] | SI (selectivity index) HL-60 [1] | CC50 [2] [µM] | SI (selectivity index) HSC-2 [2] | CC50 [3] [µM] | SI (selectivity index) HSC-3 [3] | CC50 [4] [µM] | SI (selectivity index) HSC-4 [4] | CC50 at 48 h [5] [µM] | CC50 at 48 h [6] [µM] | CC50 at 48 h [7] [µM] | CC50 [8] [µM] | AVE SI [8] | CC50 at 48 h [9] [µM] | CC50 [10] [µM] | also measured
1 | O=C1/C(=C/c2ccc(Cl)cc2)CN(C(=O)C(=O)N2C/C(=C\c3ccc(Cl)cc3)C(=O)/C(=C/c3ccc(Cl)cc3)C2)C/C1=C\c1ccc(Cl)cc1 [Compound 2c] | 4.4 ± 0.17 | 16.9 | 3.7 ± 0.6 | 20.1 | 11 ± 1.1 | 6.76 | 6.7 ± 3 | 11.1 | 56 ± 6.7 | 78 ± 37 | 89 ± 9.3 | 6.45 | 13.7 | > 50 | 74.3 | 
2 | COc1ccc(/C=C2\CN(C(=O)C(=O)N3C/C(=C\c4ccc(OC)cc4)C(=O)/C(=C/c4ccc(OC)cc4)C3)C/C(=C\c3ccc(OC)cc3)C2=O)cc1 [Compound 2h] | 15 ± 0.42 | >5.45 | 7.8 ± 1.3 | >10.5 | 9.2 ± 4.7 | >8.88 | 9.6 ± 0.17 | >8.51 | 82 ± 14 | 63 ± 8 | > 100 | 10.4 | >8.34 | > 50 | > 81.7 | 
3 | CN(C)c1ccc(/C=C2\CN(C(=O)C(=O)N3C/C(=C\c4ccc(N(C)C)cc4)C(=O)/C(=C/c4ccc(N(C)C)cc4)C3)C/C(=C\c3ccc(N(C)C)cc3)C2=O)cc1 [Compound 2i] | > 100 | ~1.00 | > 100 | ~1.00 | > 100 | ~1.00 | > 100 | ~1.00 | > 100 | > 100 | > 100 | > 100 | ~1.00 | > 50 | > 100 | 
4 | O=C1/C(=C/c2ccc(F)cc2)CN(C(=O)CC(=O)N2C/C(=C\c3ccc(F)cc3)C(=O)/C(=C/c3ccc(F)cc3)C2)C/C1=C\c1ccc(F)cc1 [Compound 3b] | 0.028 ± 0.001 | 151 | 0.041 ± 0.004 | 103 | 0.046 ± 0.011 | 92.0 | 0.023 ± 0.003 | 184 | 3.8 ± 0.71 | 3.2 ± 1.1 | 5.7 ± 0.67 | 0.04 | 133 | 4.23 |  | CC50 values in all four bioassays (range in words) ([8]; HL-60, HSC-2, HSC-3, HSC-4): double-digit nanomolar range; Induction of caspases-3 and -7 (caspases-3 and -7): induced caspases-3 and -7; Cleavage of PARP1 (PARP1): causing the cleavage of PARP; also recorded: leads to the cleavage of PARP1; Cell cycle effect (HSC-2 cells): G2M arrest in the cell cycle; also recorded: causes a G2/M arrest; Effect on pro-apoptotic proteins bim, bax, puma, bak (bim, bax, puma, and bak): no changes in the concentrations of these proteins were observed; Effect on mitochondrial membrane potential (MMP) (HCT116 cells [11]): huge effect on lowering the MMP; ROS generation, potency relative to 3c (HCT116 cells [12]): approximately twice the potency of 3c; Generation of reactive oxygen species (ROS) (HCT116 cells [12]; 48 h, dichlorofluorescein fluorescence): cause an increase in the ROS concentrations
5 | O=C1/C(=C/c2ccc(Cl)c(Cl)c2)CN(C(=O)CC(=O)N2C/C(=C\c3ccc(Cl)c(Cl)c3)C(=O)/C(=C/c3ccc(Cl)c(Cl)c3)C2)C/C1=C\c1ccc(Cl)c(Cl)c1 [Compound 3d] | 65 ± 6.1 | >1.54 | 73 ± 3.5 | >1.37 | 76 ± 13 | >1.32 | 79 ± 5.5 | >1.27 | > 100 | > 100 | > 100 | 73.3 | >1.38 | > 50 | > 100 | 
6 | COc1cc(/C=C/C(=O)CC(=O)/C=C/c2ccc(O)c(OC)c2)ccc1O [Curcumin, reference compound] | 7.8 ± 0.58 | 5.81 | 10 ± 0.81 | 4.53 | 16 ± 2.7 | 2.83 | 14 ± 3.2 | 3.24 | 70 ± 12 | 34 ± 6.8 | 32 ± 6.4 | 12 | 4.10 | 45.3 |  | 
